Strand notation (5' to 3'): a small letter for the sugar, then the base; units joined by * are phosphorothioate-linked, units joined directly phosphodiester-linked; [ ] holds rarer units or linkages, { } end groups; capitals alone tell only the bases. {ppp} = triphosphate; r = 2'-OH (RNA); f = 2'-fluoro
Assays:
IFNβ = IFNβ ELISA of transfected melanoma cell supernatants; assay type: cell-based, human
Experimental: For the intracellular delivery of immune stimulatory RNAs, RNAs were transfected with the DharmaFECT® Duo liposomal transfection reagent (Thermo Scientific, Waltham, Mass.) at a transfection reagent (μl):RNA (μg) ratio of 3.75:1, according to the manufacturer's instructions. Unless otherwise stated, for the induction of innate immune responses and apoptosis, immune stimulatory RNAs (500 ng/ml) were transfected into 50 to 70% confluent cells. Cells were incubated with an RNA-transfection agent complex for 5 h, followed by replenishment with fresh culture medium. To electroporate cells, 1×10^5 cells suspended in 200 μl Opti-MEM I (Invitrogen) were mixed with 1 μg of immune stimulatory RNAs or 5 μg of 2'Fluoro pyrimidine ribonucleoside triphosphate in 2-mm cuvettes and were electroporated at 300 V for 500 μs using an Electro Square Porator ECM 830 (BTX, San Diego, Calif.). For the knockdown of RNA-sensing PRRs, cells were transfected with PRR-specific siRNAs (25 nM) twice at 2-day intervals using DharmaFECT®-1 (Thermo Scientific). At 5 h after the second siRNA transfection, cells were harvested, replated into a 96-well plate and incubated overnight. Cells were then treated with immune stimulatory RNA transfections. Staurosporine (2 μM) (Sigma, St Louis, Mo.) and recombinant human IFNβ (20 ng/ml) (PeproTech, Rocky Hill, N.J.) were used as positive controls of anti-melanoma cytotoxicity. […] (100 ng/ml) (eBioscience, San Diego, Calif.) was added directly to the growth media of cells to neutralize IFNβ. Cells were transfected with RNAs as described above. At 24 hours after RNA transfection, culture supernatants were collected and stored at -80° C. for later analyses. The production of human IL-8 was analyzed with a human IL-8 ELISA kit (eBioscience). IFN-β production was determined with a human IFN-β ELISA kit (PBL Biomedical Laboratories, Piscataway, N.J.) by following the manufacturer's instructions.

WM266-4 cells [1] = assay type: cell-based; settings: MTT
Experimental: For the intracellular delivery of immune stimulatory RNAs, RNAs were transfected with the DharmaFECT® Duo liposomal transfection reagent (Thermo Scientific, Waltham, Mass.) at a transfection reagent (μl):RNA (μg) ratio of 3.75:1, according to the manufacturer's instructions. Unless otherwise stated, for the induction of innate immune responses and apoptosis, immune stimulatory RNAs (500 ng/ml) were transfected into 50 to 70% confluent cells. Cells were incubated with an RNA-transfection agent complex for 5 h, followed by replenishment with fresh culture medium. To electroporate cells, 1×10^5 cells suspended in 200 μl Opti-MEM I (Invitrogen) were mixed with 1 μg of immune stimulatory RNAs or 5 μg of 2′Fluoro pyrimidine ribonucleoside triphosphate in 2-mm cuvettes and were electroporated at 300 V for 500 μs using an Electro Square Porator ECM 830 (BTX, San Diego, Calif.). For the knockdown of RNA-sensing PRRs, cells were transfected with PRR-specific siRNAs (25 nM) twice at 2-day intervals using DharmaFECT®-1 (Thermo Scientific). At 5 h after the second siRNA transfection, cells were harvested, replated into a 96-well plate and incubated overnight. Cells were then treated with immune stimulatory RNA transfections. Staurosporine (2 μM) (Sigma, St Louis, Mo.) and recombinant human IFNβ (20 ng/ml) (PeproTech, Rocky Hill, N.J.) were used as positive controls of anti-melanoma cytotoxicity. B18R (100 ng/ml) (eBioscience, San Diego, Calif.) was added directly to the growth media of cells to neutralize IFNβ.
(§1) Growth inhibition relative to untreated cells was quantified at 72 h after RNA transfection using an MTT Cell Proliferation Assay Kit (Cayman Chemicals, Ann Arbor, Mich.), according to the manufacturer's instructions. The percent growth inhibition was calculated by using the following equation: % growth inhibition=([O.D.]untreated−[O.D.]treated)/[O.D.]untreated×100. The induction of cell death was measured 48 h after RNA transfection by flow cytometry after staining with Annexin V-PE and 7-Aminoactinomycin D (7-AAD) using the PE Annexin V Apoptosis Detection Kit I (BD Biosciences, San Jose, Calif.) and analyzed using the CellQuest software (BD Biosciences).

human TLR3 = molecular target: T1, human TLR3 (Homo sapiens, UniProt O15455); assay: HEK-hTLR3-NFκB/SEAP reporter assay; assay type: cell-based; settings: QUANTI-BLUE
T1 construct: host or cells: HEK293 (HEK-hTLR3-NFκB/SEAP)
Experimental: (§2) The human TLR3 reporter cell, HEK-hTLR3-NFκB/SEAP was purchased from Invivogen. These cells were stably co-transfected with the human TLR3 gene and an inducible SEAP (secreted embryonic alkaline phosphatase) reporter gene into HEK293 cells. The SEAP gene is placed under the control of NF-κB and AP-1. […] SEAP gene expression was measured using the SEAP detection media QUANTI-BLUE (Invivogen), according to the manufacturer's instructions. FIG. 3B is a graph showing that TLR7 is not stimulated by the ssRNAs. Human TLR7-expressing HEK293 cells were kindly provided by Dr. Todd Brennan (Duke University, Durham, N.C.). Treatment with R848 but not with polyI:C, polyI:C-DF and 5′ppp 2′F 10F-DF complexes stimulated HEK-TLR7 cells to produce the inflammatory cytokine IL-8. The data represent the mean of two experiments. Error bars represent the S.D.

Human TLR7 = molecular target: T2, Human TLR7 (Homo sapiens, UniProt Q9NYK1); assay: IL-8 production by human TLR7-expressing HEK293 cells; assay type: cell-based
T2 construct: expressed in transfected cells; host or cells: HEK293 (HEK-TLR7), gift of Dr. Todd Brennan, Duke University
T2 sequence (Q9NYK1 27-1049): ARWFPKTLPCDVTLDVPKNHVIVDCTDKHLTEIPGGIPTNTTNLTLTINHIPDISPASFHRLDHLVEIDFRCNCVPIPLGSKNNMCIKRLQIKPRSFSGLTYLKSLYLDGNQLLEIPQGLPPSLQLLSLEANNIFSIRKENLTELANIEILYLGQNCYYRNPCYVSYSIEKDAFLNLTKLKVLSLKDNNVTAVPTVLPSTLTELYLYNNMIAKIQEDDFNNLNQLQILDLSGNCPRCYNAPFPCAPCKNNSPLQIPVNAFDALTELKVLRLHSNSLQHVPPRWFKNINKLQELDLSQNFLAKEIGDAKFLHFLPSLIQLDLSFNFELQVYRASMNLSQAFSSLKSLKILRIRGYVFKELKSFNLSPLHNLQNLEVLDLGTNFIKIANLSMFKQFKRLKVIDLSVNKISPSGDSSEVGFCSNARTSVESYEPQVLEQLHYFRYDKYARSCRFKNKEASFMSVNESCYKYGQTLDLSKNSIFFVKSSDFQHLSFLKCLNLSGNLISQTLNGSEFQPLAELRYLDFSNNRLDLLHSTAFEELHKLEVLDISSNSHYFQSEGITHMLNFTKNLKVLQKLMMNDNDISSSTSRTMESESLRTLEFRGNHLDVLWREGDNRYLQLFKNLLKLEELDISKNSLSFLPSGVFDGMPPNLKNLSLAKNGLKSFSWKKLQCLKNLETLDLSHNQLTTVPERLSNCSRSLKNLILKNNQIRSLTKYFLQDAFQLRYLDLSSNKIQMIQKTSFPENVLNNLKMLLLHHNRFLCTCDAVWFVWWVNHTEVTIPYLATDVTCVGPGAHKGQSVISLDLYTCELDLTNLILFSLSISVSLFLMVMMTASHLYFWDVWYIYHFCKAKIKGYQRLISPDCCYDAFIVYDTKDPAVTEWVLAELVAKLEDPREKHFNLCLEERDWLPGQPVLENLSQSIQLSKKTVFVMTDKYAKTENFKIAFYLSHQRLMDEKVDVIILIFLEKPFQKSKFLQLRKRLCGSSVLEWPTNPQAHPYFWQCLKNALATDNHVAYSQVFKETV
Experimental: as §2

WM266-4 cells [2] = assay: Apoptosis / cell death by Annexin V-PE and 7-AAD flow cytometry; assay type: cell-based, human; settings: aptamer treated with bacterial alkaline phosphatase (BAP), 0.125 μg/ml
Experimental: For the intracellular delivery of immune stimulatory RNAs, RNAs were transfected with the DharmaFECT® Duo liposomal transfection reagent (Thermo Scientific, Waltham, Mass.) at a transfection reagent (μl):RNA (μg) ratio of 3.75:1, according to the manufacturer's instructions. Unless otherwise stated, for the induction of innate immune responses and apoptosis, immune stimulatory RNAs (500 ng/ml) were transfected into 50 to 70% confluent cells. Cells were incubated with an RNA-transfection agent complex for 5 h, followed by replenishment with fresh culture medium. […]
as §1

RIG-I, MDA-5, and PKR = assay: Western blot of RNA-sensing PRR expression after transfection; assay type: cell-based, human; settings: 24 hours after treatment
Experimental: FIG. 2A is a set of FACS plots showing induction of apoptosis. WM266-4 cells were incubated with either liposome (DF) alone or 5′ppp 2′F 10F-liposome complex (10F/DF). At 5 h after incubation, cells were replenished with fresh culture medium. Cells were then incubated for an additional 48 hours, harvested and analyzed for cell death. FIG. 2B is a set of Western blots showing activation of caspases and PARP after transfection. WM266-4 cells were either mock-treated, treated with the 5′ppp 2′F 10F without the transfection reagent, or with the 5′ppp 2′F 10E-transfection reagent complex at the indicated concentrations (1 μg/ml or 0.5 μg/ml). The activation of caspase-7, -9, and PARP was assessed by western blot using antibodies specific to the activated (cleaved) proteins (24 h after treatment). Staurosporine-treated cells were used as a positive control. […] The growth inhibition was assessed at 72 h after electroporation. […] WM266-4 cells were treated as in (FIG. 2B), and the expression of RIG-I, MDA-5, and PKR was analyzed at 24 hours after treatments. […]
Cell lysates were prepared in 1×RIPA buffer (Sigma) in the presence of the complete protease inhibitor cocktail (Roche). […] When different proteins were sequentially detected on the same membrane, membranes were treated for 8 minutes with Restore Western Blot Stripping Buffer (Thermo Scientific), washed, blocked and probed again, as described above. […]

T1 sequence (O15455 24-904): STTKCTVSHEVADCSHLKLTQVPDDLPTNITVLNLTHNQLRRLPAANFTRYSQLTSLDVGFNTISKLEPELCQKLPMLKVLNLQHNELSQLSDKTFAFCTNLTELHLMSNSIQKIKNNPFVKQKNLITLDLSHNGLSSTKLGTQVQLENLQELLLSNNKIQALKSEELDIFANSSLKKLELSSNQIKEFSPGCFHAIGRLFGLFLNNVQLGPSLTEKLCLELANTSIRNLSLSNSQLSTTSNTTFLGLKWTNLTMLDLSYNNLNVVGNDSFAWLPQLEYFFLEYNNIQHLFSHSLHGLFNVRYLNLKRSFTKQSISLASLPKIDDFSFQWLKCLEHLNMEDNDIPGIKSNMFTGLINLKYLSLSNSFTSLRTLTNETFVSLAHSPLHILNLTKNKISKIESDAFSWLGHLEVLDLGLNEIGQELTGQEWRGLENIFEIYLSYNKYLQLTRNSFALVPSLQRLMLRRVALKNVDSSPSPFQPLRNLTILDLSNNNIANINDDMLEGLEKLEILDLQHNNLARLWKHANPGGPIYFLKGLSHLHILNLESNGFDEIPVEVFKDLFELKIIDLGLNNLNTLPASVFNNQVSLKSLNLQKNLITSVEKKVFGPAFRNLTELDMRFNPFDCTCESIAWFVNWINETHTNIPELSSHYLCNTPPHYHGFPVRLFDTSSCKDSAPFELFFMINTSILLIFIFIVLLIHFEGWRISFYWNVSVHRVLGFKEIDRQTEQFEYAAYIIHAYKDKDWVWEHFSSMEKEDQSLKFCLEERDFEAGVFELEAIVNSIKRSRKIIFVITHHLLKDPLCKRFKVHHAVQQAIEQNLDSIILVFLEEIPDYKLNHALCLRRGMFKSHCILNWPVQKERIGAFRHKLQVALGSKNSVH

Compound: Motif 1A: 37-mer extended variant of Motif 1 with longer 5′overhang, SEQ ID NO: 15 ({ppp}-rGrGrGfUrArArGfUrGrGrGrArGrGrAfCrGrAfUrGfCrGrGfUrAfCfCfUrGrAfCrArGfCrAfUfC)
- IFNβ production compared to treatment with Motif 1 (IFNβ; IFNβ ELISA): significantly decreased
- cytotoxic effect compared to treatment with Motif 1 (WM266-4 cells [1]): significantly decreased

Compound: CCOCc1nc2c(N)nc3ccccc3c2n1CC(C)(C)O [Aptamer R848, R848]
- stimulation of TLR3 reporter cells (SEAP) (human TLR3): not
- stimulation of HEK-TLR7 cells to produce IL-8 (Human TLR7): stimulated

Compound: 9.14T10: 5′ppp 2′F ssRNA aptamer, 60 nt, von Willebrand Factor-specific, SEQ ID NO: 6 ({ppp}-rGrGrGrArGrGfUrGrGrAfCrGrArAfCfUrGfCfCfCfUfCrArGfCfUrAfCfUfUfUfCrAfUrGfUfUrGfCfUrGrAfCrGfCrAfCrArGrAfCrGrAfCfUfCrGfCfUrG) [Aptamer 9.14T10]
- apoptosis after dephosphorylation of the aptamer (WM266-4 cells [2]): partially prevented
- IFNβ production after dephosphorylation of the aptamer (IFNβ; aptamer treated with bacterial alkaline phosphatase (BAP), 0.125 μg/ml): partially prevented

Compound: Motif 1: 29-mer 5′ppp-2′F ssRNA, 5′overhang stem-loop, first 29 nucleotides of 10F, SEQ ID NO: 14 ({ppp}-rGrGrGrArGrGrAfCrGrAfUrGfCrGrGfUrAfCfCfUrGrAfCrArGfCrAfUfC)
- IFNβ induction compared to 10F treatment, in words (IFNβ; IFNβ ELISA): significantly lower
- cytotoxicity compared to 10F treatment, in words (WM266-4 cells [1]): significantly lower

Compound: Motif 3: 30-mer extended variant of Motif 2, 3′overhang stem-loop, SEQ ID NO: 17 ({ppp}-rGrGrAfUrGfCrGrGfUrAfCfCfUrGrAfCrArGfCrAfUfCfUfUrGrArArAfUrA)
- IFNβ induction compared to 10F treatment, in words (IFNβ; IFNβ ELISA): not statistically significant
- cytotoxicity compared to 10F treatment, in words (WM266-4 cells [1]): not statistically significant

Compound: CN[C@@H]1C[C@H]2O[C@@](C)([C@@H]1OC)n1c3ccccc3c3c4c(c5c6ccccc6n2c5c31)C(=O)NC4 [staurosporine]
- induction of RIG-I, MDA-5 and PKR expression (RIG-I, MDA-5, and PKR): not observed

Compound: polyI:C
- stimulation of TLR3 reporter cells (SEAP) (human TLR3): specifically stimulated
- stimulation of HEK-TLR7 cells to produce IL-8 (Human TLR7): not

Compound: Poly(U)30: 5′ppp-2′F ssRNA of 30 uridines, minimal secondary structure, SEQ ID NO: 13 (UUUUUUUUUUUUUUUUUUUUUUUUUUUUUU; 5'-triphosphate, 2'-fluoro modifications; Synthetic RNA Aptamer Poly(U)30)
- growth inhibition / cytotoxicity (anti-melanoma effect), in words (WM266-4 cells [1]; liposomal transfection, 72 h): not

Source: patent US10350158B2, “2′ fluoro-modified RNAs as immunostimulators” (DUKE UNIVERSITY, priority 2013, dated 2019)
